These are literature values, as cited in patent US20120252862A1, “Dissolvable Film Strip Comprising Natural Components” (YEDITEPE UNIVERSITES, priority 2009, published 2012).

For the data set the following is noted: single oral dose.

As for `O=C(O[C@@H]1Cc2c(O)cc(O)cc2O[C@@H]1c1cc(O)c(O)c(O)c1)c1cc(O)c(O)c(O)c1` [EGCG, epigallocatechin gallate], the “Dose reported safe to be applied” value is “up to 1600 mg”.
